Assay results: patent US20250170130A1, “MODULATORS OF MYC FAMILY PROTO-ONCOGENE PROTEIN” (Nalo Therapeutics, priority 2022, published 2025)
Like-named read-outs stand apart in the source and are kept apart here.

How the values were obtained:
MycC = target: T1, MycC (Homo sapiens, UniProt P01106); assay: Degradation of MycC protein in L363 cells, JESS/Western blot of lysates; type: cell-based; details: L-363, 24 h; for Dmax at 1 µM: read-out: % Degradation of MycC (L-363) 24 h, 1 μM; for Dmax at 3 µM: read-out: % Degradation of MycC (L-363) 24 h, 3 μM; for Dmax at 6 µM: read-out: % Degradation of MycC (L-363) 24 h, 6 μM; for Dmax at 0.5 µM: read-out: % Degradation of MycC (L-363) 24 h, 0.5 μM
T1 construct: endogenous in cells; host or cells: L363
T1 sequence (P01106 whole entry): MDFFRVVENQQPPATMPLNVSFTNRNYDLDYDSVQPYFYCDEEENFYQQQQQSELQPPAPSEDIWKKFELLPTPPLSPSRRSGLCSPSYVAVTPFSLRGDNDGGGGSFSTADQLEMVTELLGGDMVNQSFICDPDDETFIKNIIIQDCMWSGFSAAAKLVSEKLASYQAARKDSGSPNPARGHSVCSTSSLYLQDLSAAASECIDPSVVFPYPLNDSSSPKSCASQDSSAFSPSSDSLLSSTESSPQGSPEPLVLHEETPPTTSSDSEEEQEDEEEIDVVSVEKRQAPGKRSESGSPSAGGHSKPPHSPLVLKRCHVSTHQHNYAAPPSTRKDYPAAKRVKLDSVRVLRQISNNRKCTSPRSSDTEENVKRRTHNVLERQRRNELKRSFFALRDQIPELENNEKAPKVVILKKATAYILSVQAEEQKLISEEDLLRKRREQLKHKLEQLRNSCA
How it was run: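 L363 suspension cells were seeded at 1E6 cells per well and exposed to compound (stock 10 mM in DMSO) for 24 hrs. Cells were collected, spun down, rinsed with PBS, lysed in RIPA buffer cocktail on ice, clarified and kept at −80 degrees. Lysate protein was quantified by BCA, and c-myc was measured on JESS by chemiluminescence with tubulin and GAPDH loading controls in the NIR channel.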

MycN = target: T2, MycN (Homo sapiens, UniProt P04198); assay: Degradation of MycN protein in SK-N-BE(2) cells, JESS/Western blot of lysates; type: cell-based; details: SKNBE2, 24 h; for Dmax at 0.5 µM: read-out: % Degradation of MycN (SKNBE2) 24 h, 0.5 μM; for Dmax at 1 µM: read-out: % Degradation of MycN (SKNBE2) 24 h, 1 μM; for Dmax at 3 µM: read-out: % Degradation of MycN (SKNBE2) 24 h, 3 μM; for Dmax at 6 µM: read-out: % Degradation of MycN (SKNBE2) 24 h, 6 μM
T2 construct: endogenous in cells; host or cells: SK-N-BE(2)
T2 sequence (P04198 1-464): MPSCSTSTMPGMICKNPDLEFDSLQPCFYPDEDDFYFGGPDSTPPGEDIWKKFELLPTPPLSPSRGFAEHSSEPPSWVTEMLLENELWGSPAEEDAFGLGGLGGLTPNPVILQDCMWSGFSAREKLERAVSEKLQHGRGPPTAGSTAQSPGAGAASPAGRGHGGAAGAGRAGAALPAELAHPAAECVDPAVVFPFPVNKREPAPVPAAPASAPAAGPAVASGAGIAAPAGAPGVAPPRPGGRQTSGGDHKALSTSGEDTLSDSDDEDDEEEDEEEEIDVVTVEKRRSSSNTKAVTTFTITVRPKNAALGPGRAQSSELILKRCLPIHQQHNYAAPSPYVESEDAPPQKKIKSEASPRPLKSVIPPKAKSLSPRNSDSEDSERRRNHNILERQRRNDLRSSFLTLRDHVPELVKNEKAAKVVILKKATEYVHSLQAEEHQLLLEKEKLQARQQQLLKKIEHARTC
How it was run: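 SK-N-BE(2) adherent cells (5E5 per well of a 6 well dish) were grown 24 hrs, then exposed to compounds diluted 1 in 20 in media, with DMSO controls, for 24 hrs. Cells were scraped, pelleted, PBS washed and lysed in RIPA buffer cocktail; after BCA protein quantitation, n-myc was detected by chemiluminescence on JESS/Western blot with tubulin and GAPDH loading controls read in the near infra red channel.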

Dmax at 0.5 µM (MycC; L-363 cells, 24 h) [%]	Dmax at 1 µM (MycC; L-363 cells, 24 h, 1 μM) [%]	Dmax at 3 µM (MycC; L-363 cells, 24 h, 3 μM) [%]	Dmax at 6 µM (MycC; L-363 cells, 24 h, 6 μM) [%]	Dmax at 0.5 µM (MycN; SKNBE2 cells, 24 h, 0.5 μM) [%]	Dmax at 1 µM (MycN; SKNBE2 cells, 24 h, 1 μM) [%]	Dmax at 3 µM (MycN; SKNBE2 cells, 24 h, 3 μM) [%]	Dmax at 6 µM (MycN; SKNBE2 cells, 24 h, 6 μM) [%]	SMILES	Dmax at 1 µM (MycC) [%]	Dmax at 3 µM (MycC) [%]	Dmax at 6 µM (MycC) [%]	Dmax at 0.5 µM (MycN) [%]	Dmax at 1 µM (MycN) [%]	Dmax at 3 µM (MycN) [%]	Dmax at 6 µM (MycN) [%]
–	–	–	–	–	–	–	–	CC(C)NCC12CC(C1)N(c1nccc(Nc3cc(C4CCCC4)[nH]n3)n1)C2 [Compound 78, N-(5-Cyclopentyl-1H-pyrazol-3-yl)-2-[4-[(isopropylamino)methyl]-2-azabicyclo[2.1.1]hexan-2-yl]pyrimidin-4-amine]	< 20	50 to 79	80 to 100	< 20	20 to 49	80 to 100	80 to 100
20 to 49	20 to 49	80 to 100	80 to 100	20 to 49	50 to 79	80 to 100	80 to 100	CNCC12CC(C1)N(c1nccc(Nc3cc(C4CCC4)[nH]n3)n1)C2 [Compound 81, N-(5-Cyclobutyl-1H-pyrazol-3-yl)-2-[4-(methylaminomethyl)-2-azabicyclo[2.1.1]hexan-2-yl]pyrimidin-4-amine]	–	–	–	–	–	–	–
20 to 49	20 to 49	< 20	20 to 49	–	–	–	20 to 49	CN1CC2(C1)CN(c1nccc(Nc3cc(C4CCCC4)[nH]n3)n1)C2 [Compound 84, N-(5-cyclopentyl-1H-pyrazol-3-yl)-2-(6-methyl-2,6-diazaspiro[3.3]heptan-2-yl)pyrimidin-4-amine]	–	–	–	–	–	–	–
< 20	–	–	< 20	< 20	< 20	20 to 49	50 to 79	CN1CC2(CCN(c3nccc(Nc4cc(C5CCCC5)[nH]n4)n3)C2)C1 [Compound 85, N-(5-cyclopentyl-1H-pyrazol-3-yl)-2-(2-methyl-2,6-diazaspiro[3.4]octan-6-yl)pyrimidin-4-amine]	–	–	–	–	–	–	–
–	–	80 to 100	80 to 100	20 to 49	20 to 49	80 to 100	80 to 100	CN1CC2(CCN(c3nccc(Nc4cc(C5CCCC5)[nH]n4)n3)CC2)C1 [Compound 86]	–	–	–	–	–	–	–
20 to 49	20 to 49	20 to 49	20 to 49	< 20	< 20	< 20	20 to 49	CNCCCN(C)c1nccc(Nc2cc(C3CC3)[nH]n2)n1 [Compound 101, N^4-(5-Cyclopropyl-1H-pyrazol-3-yl)-N^2-methyl-N^2-[3-(methylamino)propyl]pyrimidine-2,4-diamine]	–	–	–	–	–	–	–
< 20	< 20	–	80 to 100	< 20	20 to 49	80 to 100	80 to 100	CC(F)(F)CNCC12CC(C1)N(c1nccc(Nc3cc(C4CCCC4)[nH]n3)n1)C2 [Compound 103, N-(5-Cyclopentyl-1H-pyrazol-3-yl)-2-[4-[(2,2-difluoropropylamino)methyl]-2-azabicyclo[2.1.1]hexan-2-yl]pyrimidin-4-amine]	–	–	–	–	–	–	–
–	< 20	–	20 to 49	–	< 20	20 to 49	20 to 49	CN1CCCC2(C1)CN(c1nccc(Nc3cc(C4CC4)[nH]n3)n1)C2 [Compound 104, N-(5-cyclopropyl-1H-pyrazol-3-yl)-2-(8-methyl-2,8-diazaspiro[3.5]nonan-2-yl)pyrimidin-4-amine]	–	–	–	–	–	–	–
< 20	< 20	< 20	< 20	< 20	< 20	20 to 49	20 to 49	c1cc(Nc2cc(C3CCCC3)[nH]n2)nc(N2CC3(CCCNC3)C2)n1 [Compound 106, N-(5-Cyclopentyl-1H-pyrazol-3-yl)-2-(2,8-diazaspiro[3.5]nonan-2-yl)pyrimidin-4-amine]	–	–	–	–	–	–	–
–	–	< 20	< 20	< 20	20 to 49	20 to 49	20 to 49	CN1CC2(CCCN(c3nccc(Nc4cc(C5CCCC5)[nH]n4)n3)C2)C1 [Compound 107, N-(5-cyclopentyl-1H-pyrazol-3-yl)-2-(2-methyl-2,6-diazaspiro[3.5]nonan-6-yl)pyrimidin-4-amine]	–	–	–	–	–	–	–
–	–	80 to 100	80 to 100	< 20	50 to 79	50 to 79	80 to 100	NC[C@H]1CCCN(c2nccc(Nc3cc(C4CCCC4)[nH]n3)n2)C1 [Compound 108, 2-[(3R)-3-(Aminomethyl)-1-piperidyl]-N-(5-cyclopentyl-1H-pyrazol-3-yl)pyrimidin-4-amine]	–	–	–	–	–	–	–
< 20	< 20	80 to 100	80 to 100	20 to 49	50 to 79	50 to 79	80 to 100	NC[C@@H]1CCCN(c2nccc(Nc3cc(C4CCCC4)[nH]n3)n2)C1 [Compound 109, 2-[(3S)-3-(Aminomethyl)-1-piperidyl]-N-(5-cyclopentyl-1H-pyrazol-3-yl)pyrimidin-4-amine]	–	–	–	–	–	–	–
< 20	–	80 to 100	80 to 100	20 to 49	50 to 79	50 to 79	80 to 100	NC[C@@H]1CCN(c2nccc(Nc3cc(C4CCCC4)[nH]n3)n2)C1 [Compound 110, 2-[(3S)-3-(Aminomethyl)pyrrolidin-1-yl]-N-(5-cyclopentyl-1H-pyrazol-3-yl)pyrimidin-4-amine]	–	–	–	–	–	–	–
< 20	< 20	< 20	< 20	< 20	< 20	< 20	50 to 79	CN(C)C[C@H]1CCN(c2nccc(Nc3cc(C4CCCC4)[nH]n3)n2)C1 [Compound 111, N-(5-Cyclopentyl-1H-pyrazol-3-yl)-2-[(3R)-3-[(dimethylamino)methyl]pyrrolidin-1-yl]pyrimidin-4-amine]	–	–	–	–	–	–	–
–	–	–	50 to 79	–	–	50 to 79	80 to 100	CNCC12CC(C1)N(c1nccc(Nc3cc(C4CCCC4)ncn3)n1)C2 [Compound 112, N-(6-Cyclopentylpyrimidin-4-yl)-2-[4-(methylaminomethyl)-2-azabicyclo[2.1.1]hexan-2-yl]pyrimidin-4-amine]	–	–	–	–	–	–	–
80 to 100	80 to 100	80 to 100	80 to 100	80 to 100	80 to 100	80 to 100	80 to 100	NCC12CCC(C1)N(c1nccc(Nc3cc(C4CC4)[nH]n3)n1)C2 (stereo not drawn) [Compound 113, 2-[4-(Aminomethyl)-2-azabicyclo[2.2.1]heptan-2-yl]-N-(5-cyclopropyl-1H-pyrazol-3-yl)pyrimidin-4-amine]	–	–	–	–	–	–	–
80 to 100	80 to 100	80 to 100	80 to 100	80 to 100	80 to 100	80 to 100	80 to 100	CNCC12CCC(C1)N(c1nccc(Nc3cc(C4CCCC4)[nH]n3)n1)C2 (stereo not drawn) [Compound 114]	–	–	–	–	–	–	–

SMILES	Dmax at 0.5 µM (MycC; L-363 cells, 24 h) [%]	Dmax at 1 µM (MycC; L-363 cells, 24 h, 1 μM) [%]	Dmax at 3 µM (MycC; L-363 cells, 24 h, 3 μM) [%]	Dmax at 6 µM (MycC; L-363 cells, 24 h, 6 μM) [%]	Dmax at 0.5 µM (MycN; SKNBE2 cells, 24 h, 0.5 μM) [%]	Dmax at 1 µM (MycN; SKNBE2 cells, 24 h, 1 μM) [%]	Dmax at 3 µM (MycN; SKNBE2 cells, 24 h, 3 μM) [%]	Dmax at 6 µM (MycN; SKNBE2 cells, 24 h, 6 μM) [%]	Dmax at 1 µM (MycC) [%]	Dmax at 3 µM (MycC) [%]	Dmax at 6 µM (MycC) [%]	Dmax at 0.5 µM (MycN) [%]	Dmax at 1 µM (MycN) [%]	Dmax at 3 µM (MycN) [%]	Dmax at 6 µM (MycN) [%]
c1cc(Nc2cc(C3CC3)[nH]n2)nc(N2CC3(CCCNC3)C2)n1 [Compound 105, N-(5-Cyclopropyl-1H-pyrazol-3-yl)-2-(2,8-diazaspiro[3.5]nonan-2-yl)pyrimidin-4-amine]	–	–	< 20	80 to 100	< 20	< 20	< 20	80 to 100	–	–	–	–	–	–	–
